Test results reported in patent publication US20260258032A1, “TYROSINE KINASE 2 INHIBITORS AND USES THEREOF” (BIOGEN MA INC., priority 2022, published 2026).
Counter-ions that a name gives are not always drawn.

Assays:
JH2 domain of human Tyk2 = target: T1, JH2 domain of human Tyk2 (Homo sapiens, UniProt P29597); experiment: JH2 biochemical assay (TR-FRET probe displacement); assay type: binding; conditions: JH2 biochemical assay
T1 construct: 10×His-tagged TYK2 JH2 domain (amino acid 575-876)
In short: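 10×His-tagged human TYK2 JH2 (aa 575-876, 2 nM) incubated 60 min with 2 nM fluorescent probe, 0.1 nM Tb anti-His antibody and compound (10-point 3-fold series from […] top). TR-FRET 520/495 nm ratio, falling with probe displacement, normalized and fitted to a 4-parameter logistic for IC50.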

[1] = system: Tyk2 kinase activity on STAT4; experiment: pSTAT4 cell assay (MSD, NK92 cells); assay type: cell-based; conditions: compounds 1 hr, stimulated 15 minutes
In short: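 Serum-starved NK92 cells were preincubated 1 hr with compound (10-point, four-fold dilutions from 10 μM), then stimulated with 30 ng/mL IL2 for 15 minutes. Lysates were read on an MSD plate assay using anti-STAT4 antibodies, and IC50 came from a 4-parameter logistic fit of normalized percent activity.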

T1 sequence (P29597 575-876): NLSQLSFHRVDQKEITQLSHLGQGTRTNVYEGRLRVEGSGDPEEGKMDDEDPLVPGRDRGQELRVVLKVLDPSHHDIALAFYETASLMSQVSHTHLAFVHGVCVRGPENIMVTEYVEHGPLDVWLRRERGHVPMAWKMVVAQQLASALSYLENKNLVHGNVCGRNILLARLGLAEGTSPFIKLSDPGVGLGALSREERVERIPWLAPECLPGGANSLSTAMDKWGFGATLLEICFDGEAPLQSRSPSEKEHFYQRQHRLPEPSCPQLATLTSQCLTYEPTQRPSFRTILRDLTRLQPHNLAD

| SMILES | IC50 (JH2 domain of human Tyk2) [µM] | IC50 [1] [µM] |
| --- | --- | --- |
| CC(=O)Nc1cc2c(cn1)C1(CC1)CN2c1nc(C(C)(F)F)ncc1F [Example 128, N-(1′-(2-(1,1-difluoroethyl)-5-fluoropyrimidin-4-yl)-1′,2′-dihydrospiro[cyclopropane-1,3′-pyrrolo[3,2-c]pyridin]-6′-yl)acetamide] | 0.01 to 0.1 | ≥ 1 |
| COC(C)(C)c1nc(C)cc(N2CC3(CC3)c3cnc(NC(C)=O)cc32)n1 [Example 129, N-(1′-(2-(2-methoxypropan-2-yl)-6-methylpyrimidin-4-yl)-1′,2′-dihydrospiro[cyclopropane-1,3′-pyrrolo[3,2-c]pyridin]-6′-yl)acetamide] | 0.01 to 0.1 | 0.1 to 1 |
| COC(C)c1nc(C)cc(N2CC3(CC3)c3cnc(NC(C)=O)cc32)n1 (centres unmarked) [Example 130, N-(1′-(2-(1-methoxyethyl)-6-methylpyrimidin-4-yl)-1′,2′-dihydrospiro[cyclopropane-1,3′-pyrrolo[3,2-c]pyridin]-6′-yl)acetamide] | ≤ 0.01 | 0.1 to 1 |
| CC(=O)Nc1cc2c(cn1)C1(CC1)CN2c1cc(=O)[nH]c(C(C)(F)F)n1 [Example 133, N-(1′-(2-(1,1-difluoroethyl)-6-oxo-1,6-dihydropyrimidin-4-yl)-1′,2′-dihydrospiro[cyclopropane-1,3′-pyrrolo[3,2-c]pyridin]-6′-yl)acetamide] | ≤ 0.01 | ≥ 1 |
| CC(=O)Nc1cc2c(cn1)C1(CC1)CN2c1cc(C)nc(S(C)(=O)=O)n1 [Example 136, N-(1′-(6-methyl-2-(methylsulfonyl)pyrimidin-4-yl)-1′,2′-dihydrospiro[cyclopropane-1,3′-pyrrolo[3,2-c]pyridin]-6′-yl)acetamide] | ≤ 0.01 | 0.01 to 0.1 |
| COC1CCN(c2nc(C)cc(N3CC4(CC4)c4cnc(NC(C)=O)cc43)n2)C1 (centres unmarked) [Example 137, N-(1′-(2-(3-methoxypyrrolidin-1-yl)-6-methylpyrimidin-4-yl)-1′,2′-dihydrospiro[cyclopropane-1,3′-pyrrolo[3,2-c]pyridin]-6′-yl)acetamide] | ≤ 0.01 | 0.1 to 1 |
| CC(=O)Nc1cc2c(cn1)C1(CC1)CN2c1cc(C)nc(OC2CCC2)n1 [Example 138, N-(1′-(2-cyclobutoxy-6-methylpyrimidin-4-yl)-1′,2′-dihydrospiro[cyclopropane-1,3′-pyrrolo[3,2-c]pyridin]-6′-yl)acetamide] | 0.01 to 0.1 | ≥ 1 |
| CC(=O)Nc1cc2c(cn1)C1(CC1)CN2c1cc(OCCN(C)C)nc(C(C)(F)F)n1 [Example 140, N-(1′-(2-(1,1-difluoroethyl)-6-(2-(dimethylamino)ethoxy)pyrimidin-4-yl)-1′,2′-dihydrospiro[cyclopropane-1,3′-pyrrolo[3,2-c]pyridin]-6′-yl)acetamide trifluoroacetate] | 0.01 to 0.1 | ≥ 1 |
| CC(=O)Nc1cc2c(cn1)C1(CC1)CN2c1cc(OC2COC2)nc(C(C)(F)F)n1 [Example 141, N-(1′-(2-(1,1-difluoroethyl)-6-(oxetan-3-yloxy)pyrimidin-4-yl)-1′,2′-dihydrospiro[cyclopropane-1,3′-pyrrolo[3,2-c]pyridin]-6′-yl)acetamide] | ≤ 0.01 | 0.1 to 1 |
| CC(=O)Nc1cc2c(cn1)C1(CC1)CN2c1cc(Oc2cncnc2)nc(C(C)(F)F)n1 [Example 142, N-(1′-(2-(1,1-difluoroethyl)-6-(pyrimidin-5-yloxy)pyrimidin-4-yl)-1′,2′-dihydrospiro[cyclopropane-1,3′-pyrrolo[3,2-c]pyridin]-6′-yl)acetamide trifluoroacetate] | 0.01 to 0.1 | ≥ 1 |
| CC(=O)Nc1cc2c(cn1)C1(CC1)CN2c1cc(Oc2ccn(C)n2)nc(C(C)(F)F)n1 [Example 143, N-(1′-(2-(1,1-difluoroethyl)-6-((1-methyl-1H-pyrazol-3-yl)oxy)pyrimidin-4-yl)-1′,2′-dihydrospiro[cyclopropane-1,3′-pyrrolo[3,2-c]pyridin]-6′-yl)acetamide trifluoroacetate] | ≤ 0.01 | 0.1 to 1 |
| CC(=O)Nc1cc2c(cn1)C1(CC1)CN2c1cc(OC2(C#N)CC2)nc(C(C)(F)F)n1 [Example 144, N-(1′-(6-(1-cyanocyclopropoxy)-2-(1,1-difluoroethyl)pyrimidin-4-yl)-1′,2′-dihydrospiro[cyclopropane-1,3′-pyrrolo[3,2-c]pyridin]-6′-yl)acetamide trifluoroacetate] | 0.01 to 0.1 | ≥ 1 |
| CC(=O)Nc1cc2c(cn1)C1(CC1)CN2c1cc(Oc2cnn(C)c2)nc(C(C)(F)F)n1 [Example 145, N-(1′-(2-(1,1-difluoroethyl)-6-((1-methyl-1H-pyrazol-4-yl)oxy)pyrimidin-4-yl)-1′,2′-dihydrospiro[cyclopropane-1,3′-pyrrolo[3,2-c]pyridin]-6′-yl)acetamide trifluoroacetate] | 0.01 to 0.1 | 0.1 to 1 |
| CC(=O)Nc1cc2c(cn1)C1(CC1)CN2c1cc(Oc2cnnn2C)nc(C(C)(F)F)n1 [Example 149, N-(1′-(2-(1,1-difluoroethyl)-6-((1-methyl-1H-1,2,3-triazol-5-yl)oxy)pyrimidin-4-yl)-1′,2′-dihydrospiro[cyclopropane-1,3′-pyrrolo[3,2-c]pyridin]-6′-yl)acetamide trifluorocetate] | 0.01 to 0.1 | ≥ 1 |
| CC(=O)Nc1cc2c(cn1)C1(CC1)CN2c1cc(OC(C)C#N)nc(C(C)(F)F)n1 (centres unmarked) [Example 151, N-(1′-(6-(1-cyanoethoxy)-2-(1,1-difluoroethyl)pyrimidin-4-yl)-1′,2′-dihydrospiro[cyclopropane-1,3′-pyrrolo[3,2-c]pyridin]-6′-yl)acetamide trifluoroacetate] | 0.01 to 0.1 | ≥ 1 |
| CC(=O)Nc1cc2c(cn1)C1(CC1)CN2c1cc(OC(C#N)C2CC2)nc(C(C)(F)F)n1 (centres unmarked) [Example 152, N-(1′-(6-(cyano(cyclopropyl)methoxy)-2-(1,1-difluoroethyl)pyrimidin-4-yl)-1′,2′-dihydrospiro[cyclopropane-1,3′-pyrrolo[3,2-c]pyridin]-6′-yl)acetamide trifluoroacetate] | 0.01 to 0.1 | 0.1 to 1 |
| CC(=O)Nc1cc2c(cn1)C1(CC1)CN2c1cc(NC(C)C)nc(C(C)(F)F)n1 [Example 153, N-(1′-(2-(1,1-difluoroethyl)-6-(isopropylamino)pyrimidin-4-yl)-1′,2′-dihydrospiro[cyclopropane-1,3′-pyrrolo[3,2-c]pyridin]-6′-yl)acetamide trifluoroacetate] | ≤ 0.01 | 0.01 to 0.1 |
| CC(=O)Nc1cc2c(cn1)C1(CC1)CN2c1cc(NCC2CC2)nc(C(C)(F)F)n1 [Example 154, N-(1′-(6-((cyclopropylmethyl)amino)-2-(1,1-difluoroethyl)pyrimidin-4-yl)-1′,2′-dihydrospiro[cyclopropane-1,3′-pyrrolo[3,2-c]pyridin]-6′-yl)acetamide trifluoroacetate] | ≤ 0.01 | ≤ 0.01 |
| CC(=O)Nc1cc2c(cn1)C1(CC1)CN2c1cc(NC2CCOCC2)nc(C(C)(F)F)n1 [Example 155, N-(1′-(2-(1,1-difluoroethyl)-6-((tetrahydro-2H-pyran-4-yl)amino)pyrimidin-4-yl)-1′,2′-dihydrospiro[cyclopropane-1,3′-pyrrolo[3,2-c]pyridin]-6′-yl)acetamide] | ≤ 0.01 | 0.01 to 0.1 |
| CCCNc1cc(N2CC3(CC3)c3cnc(NC(C)=O)cc32)nc(C(C)(F)F)n1 [Example 156, N-(1′-(2-(1,1-difluoroethyl)-6-(propylamino)pyrimidin-4-yl)-1′,2′-dihydrospiro[cyclopropane-1,3′-pyrrolo[3,2-c]pyridin]-6′-yl)acetamide trifluoroacetate] | ≤ 0.01 | ≤ 0.01 |
| CC(=O)Nc1cc2c(cn1)C1(CC1)CN2c1cc(NC2CCC2)nc(C(C)(F)F)n1 [Example 157, N-(1′-(6-(cyclobutylamino)-2-(1,1-difluoroethyl)pyrimidin-4-yl)-1′,2′-dihydrospiro[cyclopropane-1,3′-pyrrolo[3,2-c]pyridin]-6′-yl)acetamide trifluoroacetate] | ≤ 0.01 | ≤ 0.01 |
| COC(C)(C)CNc1cc(N2CC3(CC3)c3cnc(NC(C)=O)cc32)nc(C(C)(F)F)n1 [Example 158, N-(1′-(2-(1,1-difluoroethyl)-6-((2-methoxy-2-methylpropyl)amino)pyrimidin-4-yl)-1′,2′-dihydrospiro[cyclopropane-1,3′-pyrrolo[3,2-c]pyridin]-6′-yl)acetamide trifluoroacetate] | ≤ 0.01 | ≤ 0.01 |
| CC(=O)Nc1cc2c(cn1)C1(CC1)CN2c1cc(NCC2(F)CC2)nc(C(C)(F)F)n1 [Example 160, N-(1′-(2-(1,1-difluoroethyl)-6-(((1-fluorocyclopropyl)methyl)amino)pyrimidin-4-yl)-1′,2′-dihydrospiro[cyclopropane-1,3′-pyrrolo[3,2-c]pyridin]-6′-yl)acetamide trifluoroacetate] | ≤ 0.01 | 0.01 to 0.1 |
| COC1(CNc2cc(N3CC4(CC4)c4cnc(NC(C)=O)cc43)nc(C(C)(F)F)n2)CC1 [Example 161, N-(1′-(2-(1,1-difluoroethyl)-6-(((1-methoxycyclopropyl)methyl)amino)pyrimidin-4-yl)-1′,2′-dihydrospiro[cyclopropane-1,3′-pyrrolo[3,2-c]pyridin]-6′-yl)acetamide trifluoroacetate] | ≤ 0.01 | 0.01 to 0.1 |
| CC(=O)Nc1cc2c(cn1)C1(CC1)CN2c1cc(NC[C@H]2CCO2)nc(C(C)(F)F)n1 [Example 162, (R)-N-(1′-(2-(1,1-difluoroethyl)-6-((oxetan-2-ylmethyl)amino)pyrimidin-4-yl)-1′,2′-dihydrospiro[cyclopropane-1,3′-pyrrolo[3,2-c]pyridin]-6′-yl)acetamide] | ≤ 0.01 | 0.01 to 0.1 |
